In patent publication US4547357A, “N-Hydroxyethylated 2,4,6-triiodoaminoisophthalic acid bistrihydroxybutylamides, their preparation and x-ray contrast media containing them” (priority 1981, dated 1985):
Read-outs that look alike come from different tables or passages of the source.

How the values were obtained:
[1] = Number of hydroxy groups per molecule; assay type: physicochemical
Iodine content = assay type: physicochemical
Rat [2] = test: Neural compatibility, rat, intracisternal ED50; assay type: in vivo
Description: (§1) In Table I, the following compounds are compared with respect to neural and general compatibility: […]

Rat [3] = test: Neural compatibility, rat, pericerebral ED50; assay type: in vivo
Description: as §1

Mouse = test: General compatibility, mouse LD50; assay type: in vivo; details: for Mouse LD50: General compatibility
Description: as §1

[4] = clinical experience; cited from earlier work
[5] = Viscosity at 37° C., 300 mg I/ml; assay type: physicochemical
Solubility in water = assay type: physicochemical; details: in 100 ml of water; read-out: Solubility (100 ml of water dissolves)
Rat [6] = test: Neural compatibility, comparison in words; assay type: in vivo; details: data of Table I
Description: as §1

Row | SMILES | Number of hydroxy groups/molecule [1] | Iodine content (Iodine content) [%] | Rat, intracisternal ED50 (Rat [2]) [mg I/kg] | Rat, pericerebral ED50 (Rat [3]) [mg I/kg] | Mouse LD50 (Mouse) [g I/kg] | side effects (in words) [4] | Viscosity [5] [mPa · s] | solubility (Solubility in water) [mg/mL] | further results
1 | CC(=O)Nc1c(I)c(C(=O)N[C@H]2C(O)O[C@H](CO)[C@@H](O)[C@@H]2O)c(I)c(N(C)C(C)=O)c1I (some centres unmarked) [B, Metrizamide] | 4 | 48 | 48 | 62 | 14 | still are not devoid of side effects | 6.2 |  | 
2 | CC(=O)N(CCO)c1c(I)c(C(=O)NCC(O)C(O)CO)c(I)c(C(=O)NCC(O)C(O)CO)c1I (centres unmarked) [Example 4, 5-[N-(2-Hydroxyethyl)acetylamino]-2,4,6-triiodo-isophthalic Acid Bis(2,3,4-trihydroxybut-1-yl)-diamide] |  |  |  |  |  |  |  | > 700 | 
3 | CC(=O)N(CCO)c1c(I)c(C(=O)NC(CO)C(O)CO)c(I)c(C(=O)NC(CO)C(O)CO)c1I (stereo not drawn) [Example 1, 5-[N-(2-Hydroxyethyl)acetylamino]-2,4,6-triiodoisophthalic acid bis(threo-1,3,4-trihydroxybut-2-yl)diamide] | 7 | 45 | 130 |  |  |  |  |  | neural compatibility (in words) (Rat [6]): superior to the comparison compounds; Rat, pericerebral ED50 (Rat [3]; listed as A1): 171 mg I/kg; Mouse LD50 (Mouse; listed as A1): 17 g I/kg; general compatibility (in words) (Mouse; data of Table I): superior to the comparison compounds; Viscosity ([5]; listed as A1): 5.8 mPa · s
4 | C[C@H](O)C(=O)Nc1c(I)c(C(=O)NC(CO)CO)c(I)c(C(=O)NC(CO)CO)c1I [C, Iopamidol] | 5 | 49 | 116 | 154 | 15 | still are not devoid of side effects | 4.5 |  | 
5 | CC(=O)N(CC(O)CO)c1c(I)c(C(=O)NCC(O)CO)c(I)c(C(=O)NCC(O)CO)c1I (centres unmarked) [D, Iohexol] | 6 | 46 | 67 | 83 | 15 | still are not devoid of side effects | 5.5 |  | 
6 | CC(=O)N(CCO)c1c(I)c(C(=O)NC(CO)(CO)CO)c(I)c(C(=O)NC(CO)(CO)CO)c1I [Example 3, 5-[N-(2-Hydroxyethyl)acetylamino]-2,4,6-triiodo-isophthalic Acid Bis(1,1,1-trishydroxymethylmethyl)diamide] |  |  |  |  |  |  |  | > 700 | 
7 | CC(=O)N(CCO)c1c(I)c(C(=O)NC(CO)C(O)CO)c(I)c(C(=O)NC(CO)C(O)CO)c1I (stereo not drawn) [Example 2, 5-[N-(2-Hydroxyethyl)acetylamino]-2,4,6-triiodoisophthalic acid bis(erythro-1,3,4-trihydroxybut-2-yl)diamide] |  |  |  |  |  |  |  | > 700 | Rat, pericerebral ED50 (Rat [3]; listed as A2): 188 mg I/kg; Mouse LD50 (Mouse; listed as A2): 22 g I/kg; Viscosity ([5]; listed as A2): 6.2 mPa · s
